The subject of the test is M. tuberculosis H37Rv growth inhibition. In words: M. tuberculosis H37Rv growth inhibitors, H37Rv strain (AID 1626). To be noted: for IC90: measured here: IC90 against H37Rv; for CC50: measured here: Vero cell cytotoxicity.

A value given as a limit tells only on which side of the number the result lay.

By IC50 is commonly meant the concentration that gives 50% inhibition. For orientation: IC90 means the point of the concentration-response curve where the effect stands at 90%. A lower IC90 goes with an effect from little substance. As for `CCOC(=O)CNc1ccc(C(=O)OCC)cc1[N+](=O)[O-]`, the IC50 was 3.23 µM and the IC90 is over 100 µM.

Regarding `COc1ccc(NC(=O)COc2ccc3c(c2)CCC3)cc1`, the half-inhibitory concentration (IC50) was 16.4 µM and the IC90 is over 100 µM.

Turning to `CC[C@H](CO)NCCN[C@H](CC)CO`, the IC50 was 0.778 µM and the 90% effect concentration (IC90) was over 100 µM.

As usually defined, the CC50 is the concentration giving 50% cytotoxicity. Read a high CC50 as better tolerance by the cells. With `Nc1nc(CCl)nc(Nc2ccccc2)n1`, the half-inhibitory concentration (IC50) was 31.2 µM, the 90% effect concentration (IC90) is over 100 µM and the cytotoxic concentration (CC50) is 3.32 µM.

As to `CCC(/C=C1\Sc2ccc(OC)cc2N1CCO)=C\c1sc2ccc(OC)cc2[n+]1CCO`, the IC50 was 7.29 µM and the IC90 came to 10.2 µM.

As for `COc1ccccc1C(=O)Nc1nnc(-c2ccc(Cl)cc2)o1`, the half-inhibitory concentration (IC50) is 16.9 µM, the IC90 was over 100 µM and the half-maximal cytotoxic concentration (CC50) is over 40 µM.

Turning to `C=CCNc1nnc(Sc2ncccc2[N+](=O)[O-])s1`, the IC50 was 3.96 µM and the IC90 came to 6.01 µM.

Molecule `O/N=C/c1ccc2ccccc2c1` registered a concentration for an effect of 90% (IC90) of over 100 µM.

Consider `C=CCNc1cc(C(F)(F)F)nc(-c2ccccn2)n1`, for which the concentration for half-maximal inhibition (IC50) was 4.87 µM and the concentration for an effect of 90% (IC90) amounted to 16.3 µM.

Turning to `CCC(=O)OCCNc1cc(Sc2nccn2C)c2nonc2c1[N+](=O)[O-]`, the half-inhibitory concentration (IC50) is 20.2 µM, the IC90 was 27.4 µM and the CC50 stood at 18.3 µM.

Take `Cc1ccc(-c2csc3ncnc(Oc4ccc5c(C)cc(=O)oc5c4)c23)cc1`: the concentration for half-maximal inhibition (IC50) was under 0.195 µM, the IC90 was over 100 µM and the cytotoxic concentration (CC50) was over 40 µM.

On to `O=C(Nc1nnc(-c2ccc(Cl)cc2)o1)C1CCCCC1`, for which the IC50 was 3.32 µM, the IC90 is over 100 µM and the CC50 was over 40 µM.

`COc1ccc(N=Cc2c(O)c3ccccc3oc2=O)cc1` came in with an IC90 of over 100 µM and a 50% cytotoxic concentration (CC50) of over 40 µM.

`N#Cc1cnc2c(-c3ccccc3)c(-c3ccccc3)nn2c1N`: the half-inhibitory concentration (IC50) is 28.1 µM, the concentration for an effect of 90% (IC90) is over 100 µM and the CC50 is over 40 µM.

In the case of `COC(=O)c1cc(Sc2cccc(Cl)c2Cl)ccn1`, the IC50 was 11.4 µM and the IC90 came to 17 µM.

Regarding `O=C(Oc1ccc2cc(Br)ccc2c1)c1cccnc1`, the IC50 was 1.38 µM, the concentration for an effect of 90% (IC90) was over 100 µM and the CC50 is over 40 µM.

For `CCCCCCn1c(=O)c(C(=O)Nc2nnc(C)s2)c(O)c2ccccc21`, the concentration for half-maximal inhibition (IC50) was 4.65 µM, the IC90 is 6 µM and the CC50 was over 40 µM.

`COc1ccc(NC(=O)NC(C)C2CC3CCC2C3)cc1` (stereo not drawn): the IC50 is 7.4 µM, the IC90 was over 100 µM and the cytotoxic concentration (CC50) was over 40 µM.

Take `Nc1ccc2cc(Br)ccc2c1`: the half-maximal inhibitory concentration (IC50) is 0.632 µM and the IC90 was over 100 µM.

For `O=C(C1CCN(c2nnc(-n3cccc3)s2)CC1)N1CCc2ccccc2C1`, the half-inhibitory concentration (IC50) was 0.701 µM and the IC90 was found to be 0.937 µM.

Take `c1ccc(Nc2nc(-c3ccccn3)cs2)cc1`: the IC50 is 0.376 µM, the concentration for an effect of 90% (IC90) came to 0.854 µM and the 50% cytotoxic concentration (CC50) was over 40 µM.

Turning to `c1ccc(Oc2nc(-c3ccccn3)nc3ccccc23)cc1`, the IC50 was 2.71 µM, the 90% effect concentration (IC90) amounted to 13.8 µM and the cytotoxic concentration (CC50) is over 40 µM.

As to `Oc1ccc2cc(Br)ccc2c1CN1CCCC1`, the IC50 was 22.2 µM, the IC90 is over 100 µM and the CC50 was over 40 µM.

`CCOC(=O)c1ccc(N/C=C/C(=O)c2ccc(OC)c(OC)c2)cc1`: the half-maximal inhibitory concentration (IC50) was 3.44 µM and the concentration for an effect of 90% (IC90) is over 100 µM.

Consider `CCOc1ccc(NC(=O)Nc2ccccc2SC)cc1`, for which the cytotoxic concentration (CC50) was over 40 µM.

With `CCCSc1cc(N2CCN(C)CC2)nc(-c2ccc(OC)cc2)n1`, the 50% inhibitory concentration (IC50) was 10.9 µM, the 90% effect concentration (IC90) stood at 12.2 µM and the 50% cytotoxic concentration (CC50) is over 40 µM.

Take `Cc1ccc(-n2cc(CN(C)Cc3ncc[nH]3)c(-c3cccc(C)c3)n2)cc1`: the half-inhibitory concentration (IC50) was 10.3 µM, the IC90 is 13.5 µM and the CC50 was over 40 µM.

As to `O=C(Cc1cccs1)N1CCN=C1SCc1ccc(Br)cc1`, the concentration for an effect of 90% (IC90) is over 100 µM.

Regarding `CCOC(=O)CNC(=O)CSc1nc(-c2cccc(C)c2)ns1`, the 50% inhibitory concentration (IC50) is 1.5 µM and the 90% effect concentration (IC90) amounted to 8.29 µM.

In the case of `CCc1ccc(CCC(=O)Nc2ccc(C)c(C)c2)o1`, the concentration for half-maximal inhibition (IC50) was 14.8 µM and the IC90 was over 100 µM.

Regarding `Oc1cccc2ccc(/C=C/c3cccs3)nc12`, the IC50 was 1.49 µM, the concentration for an effect of 90% (IC90) was 4.51 µM and the CC50 is over 40 µM.

In the case of `Cn1cc(C(=O)CCl)c2ccccc21`, the IC50 was 1.6 µM, the concentration for an effect of 90% (IC90) came to 4.01 µM and the CC50 is 10.9 µM.

Regarding `CCOC(=O)c1ccc(N2CSC3=C(C#N)C(c4ccc(OC)cc4OC)CC(=O)N3C2)cc1` (stereo not drawn), the IC50 was 41.8 µM and the IC90 was over 100 µM.

In the case of `O=C(Oc1ccc(Cl)cc1)c1ccc(N2CCOCC2)c([N+](=O)[O-])c1`, the IC50 is 1.46 µM and the IC90 amounted to 3.16 µM.

Take `COc1cc(OC)c(-c2nn3c(C4CCCCC4)nnc3s2)cc1OC`: the IC50 was 2.2 µM and the concentration for an effect of 90% (IC90) was found to be 6.47 µM.

Turning to `Nc1ccc(C(=O)c2cccs2)cc1`, the half-inhibitory concentration (IC50) is 22.1 µM and the IC90 was over 100 µM.

In the case of `CCn1c(COc2cccc3ccccc23)nnc1SCC(=O)OC1CCCCC1`, the IC50 was 4.04 µM and the IC90 came to 14.1 µM.

With `CCN1CCN(Cc2ccc(NC(=O)c3cc(NC(=O)c4cncc(-c5ccc(C#N)cc5)c4)cc(OC)c3)cc2C(F)(F)F)CC1`, the IC50 is 4.55 µM, the IC90 came out at 6.7 µM and the CC50 was determined as 5.63 µM.

`CCOc1ccc(N=CC2=C(O)CC(C)(C)CC2=O)cc1` had a concentration for an effect of 90% (IC90) of over 100 µM.

`O=C(CSc1ccccn1)Nc1ccc2c(c1)oc1ccccc12`: the IC50 is under 0.195 µM and the 90% effect concentration (IC90) is over 100 µM.

For `COc1ccc(C2(CNC(=O)c3cc([N+](=O)[O-])cc([N+](=O)[O-])c3)CCCC2)cc1OC`, the IC50 was under 0.195 µM and the concentration for an effect of 90% (IC90) amounted to 0.686 µM.

For the molecule `N=C1SCC(=O)N1c1ncc(Cc2ccc(F)cc2)s1`, the 50% inhibitory concentration (IC50) was under 0.195 µM, the 90% effect concentration (IC90) was over 100 µM and the cytotoxic concentration (CC50) is over 40 µM.

Take `COC(=O)c1c(C)oc2ccc(OC(=O)c3cccs3)cc12`: the IC50 is 1.1 µM and the IC90 was 17.8 µM.

Turning to `CCOC(=O)CSc1nnc(-c2ccccc2NC(=O)c2ccccc2)o1`, the concentration for half-maximal inhibition (IC50) is 2.75 µM and the IC90 is over 100 µM.

In the case of `O=C(/C=C/c1ccc(-c2ccc(F)cc2)o1)N1CCCC1`, the half-inhibitory concentration (IC50) was 14 µM and the 90% effect concentration (IC90) was over 100 µM.

For the molecule `C=C(C)C1Cc2c(C)nn(-c3nc(C)cc(C)n3)c2C1` (stereo not drawn), the IC50 was 10.1 µM, the IC90 is over 100 µM and the CC50 is over 40 µM.

As to `Fc1ccc(Sc2nc(-c3ccccc3)nnc2C(F)(F)F)cc1`, the IC50 was 90.4 µM, the IC90 was over 100 µM and the CC50 is over 40 µM.

With `O=c1c2ccccc2nc(-c2ccc(Cl)c(Cl)c2)n1O`, the IC50 was 43.8 µM, the IC90 was over 100 µM and the CC50 is over 40 µM.

For `Cc1ccc(S(=O)(=O)NC(=O)Nc2nc(-c3ccc(F)c(F)c3)cs2)cc1`, the IC50 is 6.15 µM and the IC90 is over 100 µM.

With `CCc1ccc(-c2cc(C(F)(F)F)n3nc(C(=O)Nc4c(C)nn(Cc5ccc(F)cc5)c4C)cc3n2)s1`, the IC50 is 16.2 µM, the IC90 was over 100 µM and the CC50 is over 40 µM.

The record behind these values is PubChem BioAssay AID1626 (SRMLSC, 2009).
